Assay results published in ChEMBL document CHEMBL5154883, “Conformational Constrained 4-(1-Sulfonyl-3-indol)yl-2-phenylaminopyrimidine Derivatives as New Fourth-Generation Epidermal Growth Factor Receptor Inhibitors Targeting T790M/C797S Mutations” (J Med Chem, 2022).

Assays:
[1] = target: Epidermal growth factor receptor (Homo sapiens, UniProt P00533, L858R/T790M); assay: Inhibition of EGFR L858R/T790M mutant (unknown origin) by ELISA
[2] = target: Epidermal growth factor receptor (Homo sapiens, UniProt P00533, C797S/EX19DEL/T790M); assay: Inhibition of EGFR 19 del/T790M/C797S mutant (unknown origin) by ELISA
Sequence of Epidermal growth factor receptor (Homo sapiens, UniProt P00533, C797S/EX19DEL/T790M) (P00533 whole entry, looked up, stated change not applied): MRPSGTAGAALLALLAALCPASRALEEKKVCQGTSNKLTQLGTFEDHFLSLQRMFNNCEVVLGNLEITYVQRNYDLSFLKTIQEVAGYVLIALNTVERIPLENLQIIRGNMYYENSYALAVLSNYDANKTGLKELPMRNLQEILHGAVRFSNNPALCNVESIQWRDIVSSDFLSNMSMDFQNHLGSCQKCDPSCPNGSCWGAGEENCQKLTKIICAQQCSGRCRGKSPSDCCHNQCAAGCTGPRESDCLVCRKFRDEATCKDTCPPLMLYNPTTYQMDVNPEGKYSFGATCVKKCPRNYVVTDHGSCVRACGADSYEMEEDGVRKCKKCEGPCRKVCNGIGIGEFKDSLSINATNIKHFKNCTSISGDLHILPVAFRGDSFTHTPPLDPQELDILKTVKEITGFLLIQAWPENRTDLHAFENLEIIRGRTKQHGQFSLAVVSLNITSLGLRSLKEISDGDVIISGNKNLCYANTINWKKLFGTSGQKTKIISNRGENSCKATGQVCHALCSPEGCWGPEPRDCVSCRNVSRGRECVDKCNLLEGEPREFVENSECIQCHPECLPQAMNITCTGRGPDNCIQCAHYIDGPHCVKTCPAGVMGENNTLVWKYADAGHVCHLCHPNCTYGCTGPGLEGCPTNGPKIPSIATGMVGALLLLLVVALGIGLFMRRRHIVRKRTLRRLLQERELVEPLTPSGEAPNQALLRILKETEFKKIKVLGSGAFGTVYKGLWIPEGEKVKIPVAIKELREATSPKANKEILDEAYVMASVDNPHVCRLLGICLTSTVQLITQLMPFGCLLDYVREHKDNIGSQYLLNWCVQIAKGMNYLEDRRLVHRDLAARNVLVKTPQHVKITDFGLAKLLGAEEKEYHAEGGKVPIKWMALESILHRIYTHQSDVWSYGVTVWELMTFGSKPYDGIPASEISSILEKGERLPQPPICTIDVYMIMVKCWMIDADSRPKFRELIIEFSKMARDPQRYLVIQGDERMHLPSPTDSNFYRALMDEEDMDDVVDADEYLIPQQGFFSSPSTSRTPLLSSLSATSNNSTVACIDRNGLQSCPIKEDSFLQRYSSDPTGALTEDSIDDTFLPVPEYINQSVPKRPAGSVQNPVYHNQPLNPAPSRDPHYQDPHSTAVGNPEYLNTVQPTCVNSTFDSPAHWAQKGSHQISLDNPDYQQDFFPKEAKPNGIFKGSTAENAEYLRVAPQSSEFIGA

[3] = target: Epidermal growth factor receptor (Homo sapiens, UniProt P00533); assay: Inhibition of wild type EGFR (unknown origin) by ELISA
Sequence of Epidermal growth factor receptor (Homo sapiens, UniProt P00533) (P00533 whole entry): as the sequence (P00533 whole entry, looked up, stated change not applied) above

[4] = target: Epidermal growth factor receptor (Homo sapiens, UniProt P00533, C797S/L858R/T790M); assay: Inhibition of EGFR L858R/T790M/C797S mutant (unknown origin) by ELISA
Sequence of Epidermal growth factor receptor (Homo sapiens, UniProt P00533, C797S/L858R/T790M) (P00533 25-1210 T790M/C797S/L858R limits assumed): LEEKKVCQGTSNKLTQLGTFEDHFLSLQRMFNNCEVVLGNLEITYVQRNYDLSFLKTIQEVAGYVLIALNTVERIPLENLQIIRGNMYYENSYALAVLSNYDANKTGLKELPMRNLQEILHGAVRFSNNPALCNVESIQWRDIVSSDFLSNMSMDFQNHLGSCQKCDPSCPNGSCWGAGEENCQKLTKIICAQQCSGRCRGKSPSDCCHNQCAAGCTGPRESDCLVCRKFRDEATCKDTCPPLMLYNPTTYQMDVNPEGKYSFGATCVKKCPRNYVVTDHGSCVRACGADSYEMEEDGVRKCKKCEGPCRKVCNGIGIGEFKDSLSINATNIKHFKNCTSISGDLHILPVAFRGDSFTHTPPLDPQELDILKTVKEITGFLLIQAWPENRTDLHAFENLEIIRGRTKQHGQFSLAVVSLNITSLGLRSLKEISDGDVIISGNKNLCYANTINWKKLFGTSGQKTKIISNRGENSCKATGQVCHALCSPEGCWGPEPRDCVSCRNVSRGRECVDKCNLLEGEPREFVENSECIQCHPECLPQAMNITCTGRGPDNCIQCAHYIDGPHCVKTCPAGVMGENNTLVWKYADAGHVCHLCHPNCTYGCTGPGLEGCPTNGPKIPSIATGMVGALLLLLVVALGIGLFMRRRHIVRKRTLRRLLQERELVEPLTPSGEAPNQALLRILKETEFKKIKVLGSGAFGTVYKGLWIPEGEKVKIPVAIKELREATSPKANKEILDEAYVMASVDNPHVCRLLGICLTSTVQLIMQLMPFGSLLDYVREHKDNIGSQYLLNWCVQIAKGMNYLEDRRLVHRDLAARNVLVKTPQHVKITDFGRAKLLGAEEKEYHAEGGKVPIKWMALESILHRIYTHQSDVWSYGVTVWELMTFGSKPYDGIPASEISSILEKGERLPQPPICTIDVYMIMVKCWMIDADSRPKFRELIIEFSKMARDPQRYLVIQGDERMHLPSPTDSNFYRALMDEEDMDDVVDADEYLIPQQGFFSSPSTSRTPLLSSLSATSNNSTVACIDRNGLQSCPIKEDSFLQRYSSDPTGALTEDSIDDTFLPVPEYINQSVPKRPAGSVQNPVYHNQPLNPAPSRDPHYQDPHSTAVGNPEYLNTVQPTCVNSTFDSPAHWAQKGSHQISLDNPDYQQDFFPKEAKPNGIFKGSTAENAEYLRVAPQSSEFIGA

BaF3 [5] = assay: Antiproliferative activity against mouse BaF3 cells stably expressing EGFR L858R/T790M/C797S mutant assessed as inhibition of cell growth incubated for 72 hrs by CCK-8 assay; assay type: functional, cell-based; settings: BaF3, 72 h
BaF3 [6] = assay: Inhibition of EGFR 19del/T790M/[…] mutant in mouse starved BaF3 cells assessed as reduction in ERK phosphorylation incubated for 120 mins followed by EGF stimulation for 15 mins by Western blot analysis; assay type: cell-based; settings: time 135.0 min, DDE = dose-dependent effect
BaF3 [7] = assay: Inhibition of EGFR 19del/T790M/[…] mutant in mouse starved BaF3 cells assessed as reduction in EGFR phosphorylation incubated for 120 mins followed by EGF stimulation for 15 mins by Western blot analysis; assay type: cell-based; settings: time 135.0 min, DDE = dose-dependent effect
[8] = test system: Epidermal growth factor receptor (Homo sapiens), P04626+P00533+Q15303+P21860 [L858R,T790M,C797S]; assay: Inhibition of EGFR L858R/T790M/[…] mutant in mouse starved BaF3 cells assessed as reduction in ERK phosphorylation incubated for 120 mins followed by EGF stimulation for 15 mins by Western blot analysis; assay type: cell-based; settings: time 135.0 min, DDE = dose-dependent effect
[9] = test system: Epidermal growth factor receptor (Homo sapiens), P04626+P00533+Q15303+P21860 [L858R,T790M,C797S]; assay: Inhibition of EGFR L858R/T790M/[…] mutant in mouse starved BaF3 cells assessed as reduction in EGFR phosphorylation incubated for 120 mins followed by EGF stimulation for 15 mins by Western blot analysis; assay type: cell-based; settings: time 135.0 min, DDE = dose-dependent effect
[10] = Cytotoxicity against mouse IL-3 dependent BaF3 cells assessed as inhibition of cell growth incubated for 72 hrs by CCK-8 assay; assay type: toxicity, cell-based; settings: BaF3 cells (IL-3 dependent)
PC-9 = assay: Antiproliferative activity against human osimertinib-resistant PC-9 cells harboring EGFR 19 del/T790M/C797S mutant assessed as reduction in cell viability incubated for 72 hrs by CCK-8 assay; assay type: functional, cell-based; settings: PC-9, 72 h
[11] = test system: Epidermal growth factor receptor (Homo sapiens), P00533 [UNDEFINED MUTATION]; assay: Inhibition of EGFR 19 del/T790M/C797S mutant in human starved osimertinib-resistant PC-9 cells assessed as reduction in ERK phosphorylation incubated for 120 mins followed by EGF stimulation for 15 mins by Western blot analysis; assay type: cell-based; settings: time 135.0 min, DDE = dose-dependent effect
BaF3 [12] = assay: Antiproliferative activity against mouse BaF3 cells harboring EGFR 19 del/T790M/C797S mutant assessed as reduction in cell viability incubated for 72 hrs by CCK8 assay; assay type: functional, cell-based; settings: BaF3, 72 h
A-431 = assay: Antiproliferative activity against human A-431 cells harboring wild type EGFR assessed as reduction in cell viability incubated for 72 hrs by CCK-8 assay; assay type: functional, cell-based; settings: A-431, 72 h
[13] = test system: Epidermal growth factor receptor (Homo sapiens), P00533 [UNDEFINED MUTATION]; assay: Inhibition of EGFR 19 del/T790M/C797S mutant in human starved osimertinib-resistant PC-9 cells assessed as reduction in EGFR phosphorylation incubated for 120 mins followed by EGF stimulation for 15 mins by Western blot analysis; assay type: cell-based; settings: time 135.0 min, DDE = dose-dependent effect

Sequence of Epidermal growth factor receptor (Homo sapiens, UniProt P00533, L858R/T790M) (P00533 25-1210 T790M/L858R limits assumed): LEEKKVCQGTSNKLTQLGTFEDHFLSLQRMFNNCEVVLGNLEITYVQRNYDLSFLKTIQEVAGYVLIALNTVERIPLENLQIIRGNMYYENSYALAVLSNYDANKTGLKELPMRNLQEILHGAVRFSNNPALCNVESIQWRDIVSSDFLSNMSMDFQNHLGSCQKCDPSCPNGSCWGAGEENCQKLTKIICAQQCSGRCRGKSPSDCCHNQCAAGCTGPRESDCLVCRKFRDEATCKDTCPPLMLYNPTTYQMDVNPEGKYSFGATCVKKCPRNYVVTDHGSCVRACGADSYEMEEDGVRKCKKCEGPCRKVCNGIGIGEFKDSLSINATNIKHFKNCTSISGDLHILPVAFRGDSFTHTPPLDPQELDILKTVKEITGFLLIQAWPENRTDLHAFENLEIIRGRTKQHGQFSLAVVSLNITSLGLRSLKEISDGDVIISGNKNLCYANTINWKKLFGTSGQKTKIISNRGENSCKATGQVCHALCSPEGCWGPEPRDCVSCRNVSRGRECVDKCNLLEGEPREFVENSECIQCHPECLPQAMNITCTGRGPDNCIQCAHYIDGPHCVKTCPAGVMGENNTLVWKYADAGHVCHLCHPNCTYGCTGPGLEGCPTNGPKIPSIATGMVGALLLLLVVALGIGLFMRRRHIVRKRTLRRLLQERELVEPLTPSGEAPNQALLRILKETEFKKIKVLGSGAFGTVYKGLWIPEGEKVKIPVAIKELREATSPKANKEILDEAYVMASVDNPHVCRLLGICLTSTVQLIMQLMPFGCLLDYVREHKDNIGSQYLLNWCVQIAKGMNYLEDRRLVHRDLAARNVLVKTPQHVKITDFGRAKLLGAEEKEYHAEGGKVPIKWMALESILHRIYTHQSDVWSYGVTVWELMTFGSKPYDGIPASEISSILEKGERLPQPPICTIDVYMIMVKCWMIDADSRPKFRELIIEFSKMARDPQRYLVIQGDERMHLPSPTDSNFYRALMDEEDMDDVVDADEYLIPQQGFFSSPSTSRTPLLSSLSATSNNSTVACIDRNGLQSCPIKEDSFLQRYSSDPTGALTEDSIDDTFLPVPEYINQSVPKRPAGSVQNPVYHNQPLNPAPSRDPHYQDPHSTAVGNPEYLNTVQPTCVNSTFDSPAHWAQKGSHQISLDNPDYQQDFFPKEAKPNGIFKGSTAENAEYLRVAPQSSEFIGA

COc1cc(N2CCC(N3CCN(C)CC3)CC2)ccc1Nc1ncc(Cl)c(-c2c[nH]c3ccccc23)n1
IC50 [1]: 15.6 nM | IC50 [2]: 22.6 nM | IC50 [3]: > 1000 nM | IC50 [4]: 124 nM

CCS(=O)(=O)n1cc(-c2nc(Nc3cc(C(C)C)c(N4CCC(N5CCN(C)CC5)CC4)cc3OC)ncc2Cl)c2ccccc21
IC50 [1]: 74.3 nM | IC50 [2]: 116 nM | IC50 [3]: > 1000 nM | IC50 [4]: 478 nM

CCS(=O)(=O)n1cc2c3ccc(cc31)OCCCCCCOc1cc(c(C)cc1N1CCOCC1)Nc1ncc(Cl)c-2n1
IC50 (BaF3 [5]): 36 nM | inhibition (BaF3 [6]): Dde | inhibition (BaF3 [7]): Dde | inhibition [8]: Dde | inhibition [9]: Dde | IC50 [3]: 308 nM | IC50 at 72 h [10]: 2080 nM | IC50 (PC-9): 644 nM | IC50 [4]: 23.6 nM | inhibition [11]: Dde | IC50 (BaF3 [12]): 52 nM | IC50 (A-431): 2000 nM | inhibition [13]: Dde

CCS(=O)(=O)n1cc2c3ccc(cc31)OCCCCOc1cc(ccc1N1CCOCC1)Nc1ncc(Cl)c-2n1
IC50 [3]: > 1000 nM | IC50 [4]: > 1000 nM

COc1cc(N2CCC(N3CCN(C)CC3)CC2)ccc1Nc1ncc(Cl)c(-c2cn(C(C)=O)c3ccccc23)n1
IC50 [1]: 12.9 nM | IC50 [2]: 8.5 nM | IC50 [3]: > 1000 nM | IC50 [4]: 77.8 nM

CCS(=O)(=O)n1cc2c3ccc(cc31)OCCCCCCOc1cc(c(C3CCCC3)cc1N1CCOCC1)Nc1ncc(Cl)c-2n1
IC50 [3]: > 1000 nM | IC50 [4]: 165 nM

CCS(=O)(=O)n1cc2c3ccc(cc31)OCCCCCCCCOc1cc(ccc1N1CCOCC1)Nc1ncc(Cl)c-2n1
IC50 (BaF3 [5]): 450 nM | IC50 [3]: > 1000 nM | IC50 at 72 h [10]: 2440 nM | IC50 [4]: 142 nM

CCS(=O)(=O)n1cc2c3ccc(cc31)OCCCCCCCOc1cc(ccc1N1CCOCC1)Nc1ncc(Cl)c-2n1
IC50 (BaF3 [5]): 180 nM | IC50 [3]: > 1000 nM | IC50 at 72 h [10]: 773 nM | IC50 [4]: 89.9 nM

CCS(=O)(=O)n1cc(-c2nc(Nc3cc(C)c(N4CCC(N5CCN(C)CC5)CC4)cc3OC)ncc2Cl)c2ccccc21
IC50 [1]: 2.7 nM | IC50 [2]: 69.2 nM | IC50 [3]: 55.9 nM | IC50 [4]: 1.5 nM

COc1cc(N2CCC(N3CCN(C)CC3)CC2)ccc1Nc1ncc(Cl)c(-c2cn(S(=O)(=O)C3CC3)c3ccccc23)n1
IC50 [1]: 32.6 nM | IC50 [2]: 33.3 nM | IC50 [3]: > 1000 nM | IC50 [4]: 222 nM

CCS(=O)(=O)n1cc2c3ccc(cc31)OCCCCCCOc1cc(ccc1N1CCOCC1)Nc1ncc(Cl)c-2n1
IC50 (BaF3 [5]): 16 nM | IC50 [3]: 236 nM | IC50 at 72 h [10]: 293 nM | IC50 [4]: 6.2 nM

CCc1cc(Nc2ncc(Cl)c(-c3cn(S(=O)(=O)CC)c4ccccc34)n2)c(OC)cc1N1CCC(N2CCN(C)CC2)CC1
IC50 [1]: 6.3 nM | IC50 [2]: 54.8 nM | IC50 [3]: 262 nM | IC50 [4]: 21.8 nM

COc1cc(N2CCC(N3CCN(C)CC3)CC2)ccc1Nc1ncc(Cl)c(Nc2ccccc2P(C)(C)=O)n1 [BRIGATINIB]
IC50 (BaF3 [5]): 610 nM | IC50 at 72 h [10]: 1910 nM | IC50 (PC-9): 1450 nM | IC50 (BaF3 [12]): 492 nM | IC50 (A-431): 1360 nM

CCS(=O)(=O)n1cc2c3cc(ccc31)OCCCCCOc1cc(ccc1N1CCOCC1)Nc1ncc(Cl)c-2n1
IC50 [3]: > 1000 nM | IC50 [4]: > 1000 nM

CCS(=O)(=O)n1cc2c3cc(ccc31)OCCCCCCOc1cc(ccc1N1CCOCC1)Nc1ncc(Cl)c-2n1
IC50 [3]: > 1000 nM | IC50 [4]: > 1000 nM

CCS(=O)(=O)n1cc(-c2nc(Nc3cc(Cl)c(N4CCC(N5CCN(C)CC5)CC4)cc3C)ncc2Cl)c2ccccc21
IC50 (BaF3 [5]): 410 nM | IC50 [1]: 16.3 nM | IC50 [2]: 4.7 nM | IC50 [3]: 547 nM | IC50 at 72 h [10]: 1320 nM | IC50 [4]: 1.6 nM

CCS(=O)(=O)n1cc2c3ccc(cc31)OCCCCCCOc1cc(c(F)cc1N1CCOCC1)Nc1ncc(Cl)c-2n1
IC50 (BaF3 [5]): 66 nM | IC50 [3]: 885 nM | IC50 at 72 h [10]: 2560 nM | IC50 [4]: 28 nM

CCS(=O)(=O)n1cc(-c2nc(Nc3cc(Cl)c(N4CCC(N5CCN(C)CC5)CC4)cc3OC(C)C)ncc2Cl)c2ccccc21
IC50 (BaF3 [5]): 2770 nM | IC50 [1]: 2.1 nM | IC50 [2]: 8.1 nM | IC50 [3]: 413 nM | IC50 at 72 h [10]: > 10000 nM | IC50 [4]: 30.8 nM

CCS(=O)(=O)n1cc2c3ccc(cc31)OCCCCCCOc1cc(c(C3CC3)cc1N1CCOCC1)Nc1ncc(Cl)c-2n1
IC50 (BaF3 [5]): 263 nM | IC50 [3]: > 1000 nM | IC50 at 72 h [10]: > 10000 nM | IC50 [4]: 56.4 nM

CCS(=O)(=O)n1cc(-c2nc(Nc3ccc(N4CCC(N5CCN(C)CC5)CC4)c(Cl)c3OC)ncc2Cl)c2ccccc21
IC50 [1]: > 1000 nM | IC50 [2]: > 1000 nM | IC50 [3]: > 1000 nM | IC50 [4]: > 1000 nM

COc1cc(N2CCC(N3CCN(C)CC3)CC2)ccc1Nc1ncc(Cl)c(-c2cn(S(=O)(=O)C(C)C)c3ccccc23)n1
IC50 [1]: 18 nM | IC50 [2]: 24.2 nM | IC50 [3]: > 1000 nM | IC50 [4]: 145 nM

COc1cc(N2CCC(N3CCN(C)CC3)CC2)ccc1Nc1ncc(Cl)c(-c2cn(S(C)(=O)=O)c3ccccc23)n1
IC50 [1]: 5.5 nM | IC50 [2]: 1.9 nM | IC50 [3]: > 1000 nM | IC50 [4]: 41.9 nM

CCS(=O)(=O)n1cc(-c2nc(Nc3ccc(N4CCC(N5CCN(C)CC5)CC4)cc3OC)ncc2Cl)c2ccccc21
IC50 [1]: 5.6 nM | IC50 [2]: 5.6 nM | IC50 [3]: > 1000 nM | IC50 [4]: 34.8 nM

CCOc1cc(N2CCC(N3CCN(C)CC3)CC2)c(Cl)cc1Nc1ncc(Cl)c(-c2cn(S(=O)(=O)CC)c3ccccc23)n1
IC50 (BaF3 [5]): 3150 nM | IC50 [1]: 7.5 nM | IC50 [2]: 12 nM | IC50 [3]: 344 nM | IC50 at 72 h [10]: 7860 nM | IC50 [4]: 4.2 nM

CCS(=O)(=O)n1cc2c3ccc(cc31)OCCCCCOc1cc(ccc1N1CCOCC1)Nc1ncc(Cl)c-2n1
IC50 (BaF3 [5]): 168 nM | IC50 [3]: > 1000 nM | IC50 at 72 h [10]: 349 nM | IC50 [4]: 19 nM

CCS(=O)(=O)n1cc2c3ccc(cc31)OCCCCCCOc1cc(c(Cl)cc1N1CCOCC1)Nc1ncc(Cl)c-2n1
IC50 (BaF3 [5]): 140 nM | IC50 [3]: > 1000 nM | IC50 at 72 h [10]: > 10000 nM | IC50 [4]: 57.8 nM

CCS(=O)(=O)n1cc(-c2nc(Nc3cc(Cl)c(N4CCC(N5CCN(C)CC5)CC4)cc3OC)ncc2Cl)c2ccccc21
IC50 (BaF3 [5]): 2610 nM | IC50 [1]: 6.6 nM | IC50 [2]: 25.6 nM | IC50 [3]: 816 nM | IC50 at 72 h [10]: 4920 nM | IC50 [4]: 4.3 nM

C=CC(=O)Nc1cc(Nc2nccc(-c3cn(C)c4ccccc34)n2)c(OC)cc1N(C)CCN(C)C [OSIMERTINIB]
IC50 (BaF3 [5]): 4270 nM | IC50 at 72 h [10]: 3520 nM | IC50 (PC-9): 5430 nM | IC50 (BaF3 [12]): 6070 nM | IC50 (A-431): […]

CCS(=O)(=O)n1cc(-c2nc(Nc3ccc(N4CCC(N5CCN(C)CC5)CC4)c(Cl)c3)ncc2Cl)c2ccccc21
IC50 [1]: 2.2 nM | IC50 [2]: 4.9 nM | IC50 [3]: 466 nM | IC50 [4]: 14.4 nM

CCc1cc(N2CCOCC2)c2cc1Nc1ncc(Cl)c(n1)-c1cn(S(=O)(=O)CC)c3cc(ccc13)OCCCCCCO2
IC50 (BaF3 [5]): 142 nM | IC50 [3]: > 1000 nM | IC50 at 72 h [10]: 4640 nM | IC50 [4]: 32.1 nM
